The values that follow come from PMC12666248, “Synthesis of an N‐Galactosyl Norbornane Aziridine and its Potent Mixed Inhibition of Aspergillus oryzae β‐Galactosidase” (Chembiochem, 2025).

This test deals with T1, β-galactosidase (A. oryzae) (Aspergillus oryzae, UniProt Q2UCU3).
T1 construct: gene lacA
T1 sequence (Q2UCU3 19-1005): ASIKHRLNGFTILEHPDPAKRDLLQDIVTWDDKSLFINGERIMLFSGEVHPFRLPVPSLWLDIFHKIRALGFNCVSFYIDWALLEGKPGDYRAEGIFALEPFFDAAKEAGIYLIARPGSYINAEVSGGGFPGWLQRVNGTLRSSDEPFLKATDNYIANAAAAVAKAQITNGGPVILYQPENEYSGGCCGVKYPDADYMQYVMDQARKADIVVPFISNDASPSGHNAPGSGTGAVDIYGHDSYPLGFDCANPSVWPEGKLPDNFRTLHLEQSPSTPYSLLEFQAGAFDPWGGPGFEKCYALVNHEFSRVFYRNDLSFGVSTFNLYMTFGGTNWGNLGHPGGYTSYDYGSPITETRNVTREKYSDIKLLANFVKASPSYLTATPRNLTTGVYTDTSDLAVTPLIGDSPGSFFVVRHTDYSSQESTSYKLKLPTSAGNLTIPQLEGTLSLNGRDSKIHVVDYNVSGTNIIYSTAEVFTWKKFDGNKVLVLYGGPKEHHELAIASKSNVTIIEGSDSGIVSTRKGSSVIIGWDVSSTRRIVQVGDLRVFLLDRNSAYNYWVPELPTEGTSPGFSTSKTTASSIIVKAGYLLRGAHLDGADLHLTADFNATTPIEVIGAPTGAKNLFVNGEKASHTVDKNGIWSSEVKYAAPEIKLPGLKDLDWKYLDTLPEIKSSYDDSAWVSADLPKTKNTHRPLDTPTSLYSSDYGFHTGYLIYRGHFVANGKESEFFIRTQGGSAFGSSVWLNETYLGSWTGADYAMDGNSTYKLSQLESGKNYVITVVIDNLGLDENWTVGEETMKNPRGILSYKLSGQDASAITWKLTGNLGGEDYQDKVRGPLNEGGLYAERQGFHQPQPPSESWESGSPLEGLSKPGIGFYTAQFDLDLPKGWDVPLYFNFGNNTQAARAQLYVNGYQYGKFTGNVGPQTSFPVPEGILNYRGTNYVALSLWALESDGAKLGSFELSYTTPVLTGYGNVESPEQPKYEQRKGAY
The test can be described thus: Enzyme kinetics with 2-nitrophenyl β-D-galactopyranoside, absorbance at […] nm, Lineweaver–Burk analysis, pH […] °C. Type of test: biochemical.

The term Ki denotes a measure of affinity in units of concentration, obtained from inhibition or displacement.

On to `OC[C@H]1O[C@@H](N2[C@@H]3[C@H]4CC[C@H](C4)[C@@H]32)[C@H](O)[C@@H](O)[C@H]1O` (stereo partly drawn) [compound 6, N‐(β‐D‐galactopyranosyl)‐exo‐3‐azatricyclo[3.2.1.0^2,4]octane], for which the affinity, expressed as Ki, was 3.65 µM.
